Laboratory results reported in PubChem BioAssay AID286 (DTP/NCI, 2004).
Where “and” joins values, the source holds several entries; their conditions need not be identical. Identical values can stand only once. Inconclusive results and toxic doses are left out. Starred links: 1 amine or outer side, 2 acyl side, 3 side chain; linkers in the order of their positions; H or OH if unused. Positions of bridges follow the written chain, without caps; N, C: chain ends. Non-standard residues stand in square brackets, D forms with d. Residues, ends and D or L forms follow the SMILES beside them. Chains are numbered I, II in the order given. ξ: configuration not given here. *: point of attachment. Quinaldoyl(3-OH,6-OMe) = COc1ccc2nc(C(=O)*)c(O)cc2c1; X2 = CC(=O)OC1CC=NN([*:1])C1C(=O)[*:2]; ξNMeVal(3-OH) = CNC(C(=O)O)C(C)(C)O; X3 = O=C(C1CCCNN1[*:1])[*:2]; Sar = CNCC(=O)O

System: BDF1 mice, M5076 sarcoma ip, median survival T/C
Assay: NCI In Vivo Anticancer Drug Screen. Data for tumor model Sarcoma M5076 (intraperitoneal) in B6D2F1 (BDF1) mice
Conditions: endpoint: median survival time, higher = longer survival
Experimental: The antitumor activity of compounds was measured in mice bearing transplantable tumors. Survival or tumor size were measured and the results are expressed as the measurement made in the treated group (T) divided by the measurement made in the vehicle treated control group (C). The tumor model used in this assay is Sarcoma M5076 (intraperitoneal) in B6D2F1 (BDF1) mice

## Cc1c(N)nc([C@H](CC(N)=O)NC[C@H](N)C(N)=O)nc1C(=O)N[C@H](C(=O)N[C@H](C)[C@@H](O)[C@H](C)C(=O)N[C@H](C(=O)NCCc1nc(-c2nc(C(=O)NCCC[S+](C)C)cs2)cs1)[C@@H](C)O)C(OC1OC(CO)C(O)C(O)C1OC1OC(CO)C(O)C(OC(N)=O)C1O)c1cnc[nH]1 (some centres not stated)
dose: 4.0 mg/kg/injection, schedule: Q04DX004 (ip), vehicle: saline
  T/C: 113 % of control
dose: 8.0 mg/kg/injection, schedule: Q04DX004 (ip), vehicle: saline
  T/C: 101 % of control
dose: 16.0 mg/kg/injection, schedule: Q04DX004 (ip), vehicle: saline
  T/C: 117 % of control
dose: 32.0 mg/kg/injection, schedule: Q04DX004 (ip), vehicle: saline
  T/C: 116 % of control

## CCC(O)CC1OC2(CCC1C)CC1OC(=O)/C=C\C(C)(O)C(O)C(C)C(O)C(OC3CC(OC)C(O)C(C)O3)C(O)C(C)(O)CCC/C=C/C3CC(C)COC3(O)CC(O2)C1C (configuration not stated)
dose: 0.25 mg/kg/injection, schedule: Q01DX009 (ip), vehicle: saline + alcohol
  T/C: 105 % of control
dose: 0.5 mg/kg/injection, schedule: Q01DX009 (ip), vehicle: saline + alcohol
  T/C: 113 % of control
dose: 1.0 mg/kg/injection, schedule: Q01DX009 (ip), vehicle: saline + alcohol
  T/C: 104 % of control
dose: 2.0 mg/kg/injection, schedule: Q01DX009 (ip), vehicle: saline + alcohol
  T/C: 111 % of control

## COc1ccc2nc(C(=O)NC3COC(=O)C(C(C)(C)O)N(C)C(=O)CN(C)C(=O)CNC(=O)C4CCCNN4C(=O)C(NC(=O)c4nc5ccc(OC)cc5cc4O)COC(=O)C(C(C)(C)O)N(C)C(=O)CN(C)C(=O)CNC(=O)C4C(OC(C)=O)CC=NN4C3=O)c(O)cc2c1 (configuration not stated) (I: {Quinaldoyl(3-OH,6-OMe)}-S[X2]G[Sar][ξNMeVal(3-OH)] / II: {Quinaldoyl(3-OH,6-OMe)}-S[X3]G[Sar][ξNMeVal(3-OH)]; ester I:1-II:C, I:C-II:1; configuration not given here)
dose: 10.0 micrograms/kg/injection, schedule: Q01DX009 (ip), vehicle: DMSO
  T/C: 155 % of control
dose: 12.5 micrograms/kg/injection, schedule: Q01DX009 (ip), vehicle: DMSO
  T/C: 157 % of control
dose: 20.0 micrograms/kg/injection, schedule: Q01DX009 (ip), vehicle: DMSO
  T/C: 190 % of control
dose: 25.0 micrograms/kg/injection, schedule: Q01DX009 (ip), vehicle: DMSO
  T/C: 170 % of control
dose: 50.0 micrograms/kg/injection, schedule: Q01DX009 (ip), vehicle: DMSO
  T/C: 179 % of control

## CC(=O)N(C)O
dose: 37.0 mg/kg/injection, schedule: Q04DX004 (ip), vehicle: saline with Tween-80
  T/C: 99 % of control
dose: 75.0 mg/kg/injection, schedule: Q04DX004 (ip), vehicle: saline with Tween-80
  T/C: 107 % of control
dose: 150.0 mg/kg/injection, schedule: Q04DX004 (ip), vehicle: saline with Tween-80
  T/C: 107 % of control
dose: 300.0 mg/kg/injection, schedule: Q04DX004 (ip), vehicle: saline with Tween-80
  T/C: 113 % of control
dose: 600.0 mg/kg/injection, schedule: Q04DX004 (ip), vehicle: saline with Tween-80
  T/C: 103 % of control

## C=C1C(=O)OC2C1C(OC(=O)/C(C)=C\C)CC(C)=C1C(=O)C3OC3(C)C12O (configuration not stated)
dose: 1.25 mg/kg/injection, schedule: Q01DX009 (ip), vehicle: saline + alcohol
  T/C: 97 % of control
dose: 2.5 mg/kg/injection, schedule: Q01DX009 (ip), vehicle: saline + alcohol
  T/C: 105 % of control
dose: 5.0 mg/kg/injection, schedule: Q01DX009 (ip), vehicle: saline + alcohol
  T/C: 105 % of control and 121 % of control
dose: 20.0 mg/kg/injection, schedule: Q01DX009 (ip), vehicle: saline + alcohol
  T/C: 117 % of control

## O=Cc1c(O)c2ccccc2[nH]c1=O
dose: 25.0 mg/kg/injection, schedule: Q04DX004 (ip), vehicle: saline with Tween-80
  T/C: 98 % of control
dose: 50.0 mg/kg/injection, schedule: Q04DX004 (ip), vehicle: saline with Tween-80
  T/C: 124 % of control
dose: 100.0 mg/kg/injection, schedule: Q04DX004 (ip), vehicle: saline with Tween-80
  T/C: 101 % of control

## S=c1nc[nH]c2nc[nH]c12
dose: 20.0 mg/kg/injection, schedule: Q04DX005 (ip), vehicle: alkali diluted with saline
  T/C: 96 % of control
dose: 80.0 mg/kg/injection, schedule: Q04DX005 (ip), vehicle: alkali diluted with saline
  T/C: 120 % of control

## Cc1c2ccccc2c(C)c2c1cc(C(=O)O)c1ccccc12
dose: 25.0 mg/kg/injection, schedule: Q04DX004 (ip), vehicle: sodium bicarbonate
  T/C: 109 % of control
dose: 100.0 mg/kg/injection, schedule: Q04DX004 (ip), vehicle: sodium bicarbonate
  T/C: 110 % of control
dose: 200.0 mg/kg/injection, schedule: Q04DX004 (ip), vehicle: sodium bicarbonate
  T/C: 116 % of control
dose: 400.0 mg/kg/injection, schedule: Q04DX004 (ip), vehicle: sodium bicarbonate
  T/C: 110 % of control

## O=C1C2C3C=CC(C2C(=O)N1CO)C1C2C(=O)N(CO)C(=O)C2C31 (configuration not stated)
dose: 12.5 mg/kg/injection, schedule: Q04DX004 (ip), vehicle: water
  T/C: 106 % of control
dose: 25.0 mg/kg/injection, schedule: Q04DX004 (ip), vehicle: water
  T/C: 105 % of control
dose: 50.0 mg/kg/injection, schedule: Q04DX004 (ip), vehicle: water
  T/C: 106 % of control

## Nc1nc(=S)c2[nH]cnc2[nH]1
dose: 0.75 mg/kg/injection, schedule: Q04DX005 (ip), vehicle: alkali diluted with saline
  T/C: 101 % of control
dose: 2.0 mg/kg/injection, schedule: Q04DX005 (ip), vehicle: alkali diluted with saline
  T/C: 92 % of control
dose: 6.0 mg/kg/injection, schedule: Q04DX005 (ip), vehicle: alkali diluted with saline
  T/C: 157 % of control

## CC[N+](CC)(CC)CC
dose: 10.8 mg/kg/injection, schedule: Q04DX005 (ip), vehicle: saline with Tween-80
  T/C: 172 % of control

## C1CCC(NC2CCCCC2)CC1
dose: 25.0 mg/kg/injection, schedule: Q04DX004 (ip), vehicle: saline
  T/C: 102 % of control
dose: 50.0 mg/kg/injection, schedule: Q04DX004 (ip), vehicle: saline
  T/C: 98 % of control
dose: 100.0 mg/kg/injection, schedule: Q04DX004 (ip), vehicle: saline
  T/C: 100 % of control
dose: 200.0 mg/kg/injection, schedule: Q04DX004 (ip), vehicle: saline
  T/C: 105 % of control
dose: 400.0 mg/kg/injection, schedule: Q04DX004 (ip), vehicle: saline
  T/C: 105 % of control

## CC1=C[P+](c2ccccc2)(c2ccccc2)C=C(c2ccccc2)O1
dose: 1.25 mg/kg/injection, schedule: Q04DX004 (ip), vehicle: saline + alcohol
  T/C: 99 % of control
dose: 2.5 mg/kg/injection, schedule: Q04DX004 (ip), vehicle: saline + alcohol
  T/C: 107 % of control
dose: 5.0 mg/kg/injection, schedule: Q04DX004 (ip), vehicle: saline + alcohol
  T/C: 118 % of control

## CC(=O)OCc1cc(=O)n(C)c2c3c4c(cc12)c(C)cc(=O)n4CO3
dose: 4.0 mg/kg/injection, schedule: Q01DX009 (ip), vehicle: Klucel (hydroxypropylcellulose) (HPC)
  T/C: 102 % of control
dose: 5.0 mg/kg/injection, schedule: Q04DX005 (ip), vehicle: Klucel (hydroxypropylcellulose) (HPC)
  T/C: 102 % of control
dose: 8.0 mg/kg/injection, schedule: Q01DX009 (ip), vehicle: Klucel (hydroxypropylcellulose) (HPC)
  T/C: 100 % of control
dose: 10.0 mg/kg/injection, schedule: Q04DX005 (ip), vehicle: Klucel (hydroxypropylcellulose) (HPC)
  T/C: 100 % of control
dose: 16.0 mg/kg/injection, schedule: Q01DX009 (ip), vehicle: Klucel (hydroxypropylcellulose) (HPC)
  T/C: 99 % of control
dose: 20.0 mg/kg/injection, schedule: Q01DX009 (ip), vehicle: Klucel (hydroxypropylcellulose) (HPC)
  T/C: 165 % of control
dose: 20.0 mg/kg/injection, schedule: Q04DX005 (ip), vehicle: Klucel (hydroxypropylcellulose) (HPC)
  T/C: 116 % of control and 118 % of control
dose: 32.0 mg/kg/injection, schedule: Q01DX009 (ip), vehicle: Klucel (hydroxypropylcellulose) (HPC)
  T/C: 99 % of control
dose: 40.0 mg/kg/injection, schedule: Q01DX009 (ip), vehicle: Klucel (hydroxypropylcellulose) (HPC)
  T/C: 179 % of control
dose: 40.0 mg/kg/injection, schedule: Q04DX005 (ip), vehicle: Klucel (hydroxypropylcellulose) (HPC)
  T/C: 102 % of control
dose: 64.0 mg/kg/injection, schedule: Q01DX009 (ip), vehicle: Klucel (hydroxypropylcellulose) (HPC)
  T/C: 103 % of control
dose: 80.0 mg/kg/injection, schedule: Q04DX005 (ip), vehicle: Klucel (hydroxypropylcellulose) (HPC)
  T/C: 92 % of control and 95 % of control

## C=C1C(=O)OC2C(OC(C)=O)C1C(OC(=O)C(C)CC)[C@]1(C)C(=O)C=C[C@H]1[C@@H]2C (some centres not stated)
dose: 1.25 mg/kg/injection, schedule: Q01DX009 (ip), vehicle: Klucel (hydroxypropylcellulose) (HPC)
  T/C: 110 % of control
dose: 2.5 mg/kg/injection, schedule: Q01DX009 (ip), vehicle: Klucel (hydroxypropylcellulose) (HPC)
  T/C: 107 % of control
dose: 5.0 mg/kg/injection, schedule: Q01DX009 (ip), vehicle: Klucel (hydroxypropylcellulose) (HPC)
  T/C: 101 % of control
dose: 10.0 mg/kg/injection, schedule: Q01DX009 (ip), vehicle: Klucel (hydroxypropylcellulose) (HPC)
  T/C: 110 % of control
